Data on 18 compounds can be found in US20230212549A1, “COMPOUNDS COMPRISING A […] LIGAND AND USE THEREOF” (priority 2021, published 2023).

Assay [1] concerns the target T1, FAP-expressing human WI-38 fibroblasts (Homo sapiens, UniProt Q12884).
T1 construct: FAP-expressing human WI-38 fibroblasts (ECACC) were cultured in EMEM; host or cells: WI-38 human fibroblasts
Nature of the assay: Competitive FACS binding assay. As to the method: Cells were analyzed in an Attune NxT flow cytometer. […] […].
Cells were analyzed in an Attune NxT flow cytometer. […]

A further assay deals with Human recombinant FAP (Homo sapiens, UniProt Q12884). Nature of the assay: FRET-based FAP protease activity assay. Format: biochemical. Also on record: purchased R&D systems 3715-SE. As to conditions: pIC50 Category (Activity), FRET-based FAP protease activity assay, recombinant human FAP, 37° C.
Chain of Human recombinant FAP (Q12884 whole entry): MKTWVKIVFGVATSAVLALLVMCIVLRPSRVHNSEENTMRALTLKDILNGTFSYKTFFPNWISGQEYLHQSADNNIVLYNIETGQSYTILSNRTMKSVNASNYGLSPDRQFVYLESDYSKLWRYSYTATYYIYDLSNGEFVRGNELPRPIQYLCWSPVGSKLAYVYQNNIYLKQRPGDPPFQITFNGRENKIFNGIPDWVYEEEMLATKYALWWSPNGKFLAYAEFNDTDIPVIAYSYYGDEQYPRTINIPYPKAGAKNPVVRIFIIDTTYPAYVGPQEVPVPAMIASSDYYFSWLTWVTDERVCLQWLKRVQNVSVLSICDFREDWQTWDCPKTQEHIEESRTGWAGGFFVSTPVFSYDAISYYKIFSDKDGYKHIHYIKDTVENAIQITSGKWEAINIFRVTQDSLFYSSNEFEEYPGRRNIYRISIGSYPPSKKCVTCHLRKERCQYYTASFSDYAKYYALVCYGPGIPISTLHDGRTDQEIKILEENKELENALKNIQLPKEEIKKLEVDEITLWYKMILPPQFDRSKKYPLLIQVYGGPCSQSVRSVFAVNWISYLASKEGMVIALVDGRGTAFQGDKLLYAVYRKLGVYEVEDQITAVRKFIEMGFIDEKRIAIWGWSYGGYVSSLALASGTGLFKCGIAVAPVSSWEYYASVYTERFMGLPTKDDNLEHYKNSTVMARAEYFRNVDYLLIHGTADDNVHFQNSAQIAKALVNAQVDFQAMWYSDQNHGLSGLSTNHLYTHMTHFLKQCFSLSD

pIC50: −log10 of the molar value. Numbered stars: 1 amine (or outer) side, 2 acyl side, 3 side chain; on linkers, the order of the positions; unused ones are H or OH. Bridge positions count the residues as written; N and C are the ends. Square brackets hold non-standard residues; d marks the D form. Peptide text beside a SMILES is read from it. * marks the point of attachment. DOTA = O=C(O)CN1CCN(CC(=O)O)CCN(CC(=O)*)CCN(CC(=O)O)CC1; Pro(trans-4-Ph) = O=C(O)[C@@H]1C[C@@H](c2ccccc2)CN1; Pro(trans-4-F) = O=C(O)[C@@H]1C[C@@H](F)CN1; Bip = N[C@@H](Cc1ccc(-c2ccccc2)cc1)C(=O)O; 1Nal = N[C@@H](Cc1cccc2ccccc12)C(=O)O; 2Nal = N[C@@H](Cc1ccc2ccccc2c1)C(=O)O; Met(O2) = CS(=O)(=O)CC[C@H](N)C(=O)O; mXylylene = c1cc(C[*:1])cc(C[*:2])c1; Pyrazinecarbonyl = O=C(c1cnccn1)*; NMeF = CN[C@@H](Cc1ccccc1)C(=O)O; NMeE = CN[C@@H](CCC(=O)O)C(=O)O; Tic = O=C(O)[C@@H]1Cc2ccccc2CN1; Pen = CC(C)(S)[C@H](N)C(=O)O; Nphe = O=C(O)CNCc1ccccc1; Orn = NCCC[C@H](N)C(=O)O; Hexanoyl = CCCCCC(=O)*; AEEA = NCCOCCOCC(=O)O; Inp = O=C(O)C1CCNCC1; Ahx = NCCCCCC(=O)O; βAla = NCCC(=O)O; Sar = CNCC(=O)O

T1 sequence (Q12884 whole entry): as above

In the case of `C[C@@H](O)[C@@H]1NC(=O)[C@@H]2CCCN2C(=O)[C@@H]2CCCN2C(=O)[C@@H](NC(=O)CCNC(=O)CN2CCN(CC(=O)O)CCN(CC(=O)O)CCN(CC(=O)O)CC2)CSCc2cccc(c2)CSC[C@@H](C(=O)N[C@@H](CC(=O)O)C(=O)N[C@@H](Cc2c[nH]cn2)C(=O)N(C)[C@@H](Cc2ccccc2)C(=O)N[C@@H](CCCNC(=N)N)C(=O)N[C@@H](CC(=O)O)C(N)=O)NC(=O)[C@H](Cc2ccccc2)NC(=O)[C@H](CCC(=O)O)NC1=O` [3BP-3264, DOTA-Bal-[Cys(3MeBn)-Pro-Pro-Thr-Glu-Phe-Cys]-Asp-His-Nmf-Arg-Asp-NH2] ({DOTA-βAla}-CPPTEFCDH[NMeF]RD-NH2; linker 1-7 via mXylylene), the pIC50 (in assay [1]; at Human recombinant FAP) was 7.10 to 8.00 in each case.
In the case of `C[C@@H](O)[C@@H]1NC(=O)[C@@H]2CCCN2C(=O)[C@@H]2CCCN2C(=O)[C@@H](NC(=O)C2CCN(C(=O)CN3CCN(CC(=O)O)CCN(CC(=O)O)CCN(CC(=O)O)CC3)CC2)CSCc2cccc(c2)CSC[C@@H](C(=O)N[C@@H](CC(=O)O)C(=O)N[C@@H](Cc2c[nH]cn2)C(=O)N(C)[C@@H](Cc2ccccc2)C(=O)N[C@@H](CCCNC(=N)N)C(=O)N[C@@H](CC(=O)O)C(N)=O)NC(=O)[C@H](Cc2ccccc2)NC(=O)[C@H](CCC(=O)O)NC1=O` [3BP-3265, DOTA-Inp-[Cys(3MeBn)-Pro-Pro-Thr-Glu-Phe-Cys]-Asp-His-Nmf-Arg-Asp-NH2] ({DOTA-Inp}-CPPTEFCDH[NMeF]RD-NH2; linker 1-7 via mXylylene), the pIC50 (in assay [1]; at Human recombinant FAP) was 6.10 to 7.00 in each case.
For `C[C@@H](O)[C@@H]1NC(=O)[C@@H]2CCCN2C(=O)[C@@H]2CCCN2C(=O)[C@@H](NC(=O)CCCCCNC(=O)CN2CCN(CC(=O)O)CCN(CC(=O)O)CCN(CC(=O)O)CC2)CSCc2cccc(c2)CSC[C@@H](C(=O)N[C@@H](CC(=O)O)C(=O)N[C@@H](Cc2c[nH]cn2)C(=O)N(C)[C@@H](Cc2ccccc2)C(=O)N[C@@H](CCCNC(=N)N)C(=O)N[C@@H](CC(=O)O)C(N)=O)NC(=O)[C@H](Cc2ccccc2)NC(=O)[C@H](CCC(=O)O)NC1=O` [3BP-3266, DOTA-Ahx-[Cys(3MeBn)-Pro-Pro-Thr-Glu-Phe-Cys]-Asp-His-Nmf-Arg-Asp-NH2] ({DOTA-Ahx}-CPPTEFCDH[NMeF]RD-NH2; linker 1-7 via mXylylene), the pIC50 (in assay [1]; at Human recombinant FAP) was 6.10 to 7.00 throughout.
Turning to `C[C@@H](O)[C@@H]1NC(=O)[C@@H]2CCCN2C(=O)[C@@H]2CCCN2C(=O)[C@@H](NC(=O)COCCOCCNC(=O)CN2CCN(CC(=O)O)CCN(CC(=O)O)CCN(CC(=O)O)CC2)CSCc2cccc(c2)CSC[C@@H](C(=O)N[C@@H](CC(=O)O)C(=O)N[C@@H](Cc2c[nH]cn2)C(=O)N(C)[C@@H](Cc2ccccc2)C(=O)N[C@@H](CCCNC(=N)N)C(=O)N[C@@H](CC(=O)O)C(N)=O)NC(=O)[C@H](Cc2ccccc2)NC(=O)[C@H](CCC(=O)O)NC1=O` [3BP-3267, DOTA-O2Oc-[Cys(3MeBn)-Pro-Pro-Thr-Glu-Phe-Cys]-Asp-His-Nmf-Arg-Asp-NH2] ({DOTA-AEEA}-CPPTEFCDH[NMeF]RD-NH2; linker 1-7 via mXylylene), the pIC50 (in assay [1]; at Human recombinant FAP) was 6.10 to 7.00 in each case.
With `CCCCCC(=O)N[C@H]1CSCc2cccc(c2)CSC[C@@H](C(=O)N[C@@H](CC(=O)O)C(=O)N[C@@H](CCCNC(=N)N)C(N)=O)NC(=O)[C@H](Cc2ccccc2)NC(=O)[C@H](CCC(=O)O)NC(=O)[C@H]([C@@H](C)O)NC(=O)[C@@H]2CCCN2C(=O)[C@@H]2CCCN2C1=O` [3BP-3299, Hex-[Cys(3MeBn)-Pro-Pro-Thr-Glu-Phe-Cys]-Asp-Arg-NH2] (Hexanoyl-CPPTEFCDR-NH2; linker 1-7 via mXylylene), the pIC50 (in assay [1]; at Human recombinant FAP) was greater than 8.00 each time.
In the case of `CCCCCC(=O)N[C@H]1CSCc2cccc(c2)CSC[C@@H](C(N)=O)NC(=O)[C@H](Cc2ccccc2)NC(=O)[C@H](CCC(=O)O)NC(=O)[C@H]([C@@H](C)O)NC(=O)[C@@H]2CCCN2C(=O)CN(C)C1=O` [3BP-3347, Hex-[Cys(3MeBn)-Nmg-Pro-Thr-Glu-Phe-Cys]-NH2] (Hexanoyl-C[Sar]PTEFC-NH2; linker 1-7 via mXylylene), the pIC50 was 6.10 to 7.00 in assay [1] and 7.10 to 8.00 at Human recombinant FAP.
Taken in the same sequence, the figures for `CCCCCC(=O)N[C@H]1CSCc2cccc(c2)CSC(C)(C)[C@@H](C(N)=O)NC(=O)[C@H](Cc2ccccc2)NC(=O)[C@H](CCC(=O)O)NC(=O)[C@H]([C@@H](C)O)NC(=O)[C@@H]2CCCN2C(=O)[C@@H]2CCCN2C1=O` [3BP-3351, Hex-[Cys(3MeBn)-Pro-Pro-Thr-Glu-Phe-Pen]-NH2] (Hexanoyl-CPPTEF[Pen]-NH2; linker 1-7 via mXylylene) were less than 6.00 and 6.10 to 7.00.
Taken in the same sequence, the figures for `CCCCCC(=O)N[C@H]1CSCc2cccc(c2)CSC[C@@H](C(N)=O)NC(=O)[C@H](Cc2ccccc2)NC(=O)[C@H](CCC(=O)O)NC(=O)[C@H]([C@@H](C)O)NC(=O)[C@@H]2C[C@@H](F)CN2C(=O)[C@@H]2CCCN2C1=O` [3BP-3352, Hex-[Cys(3MeBn)-Pro-4Tfp-Thr-Glu-Phe-Cys]-NH2] (Hexanoyl-CP[Pro(trans-4-F)]TEFC-NH2; linker 1-7 via mXylylene) were 6.10 to 7.00 and 7.10 to 8.00.
For the compound `CCCCCC(=O)N[C@H]1CSCc2cccc(c2)CSC[C@@H](C(N)=O)NC(=O)[C@H](Cc2ccccc2)NC(=O)[C@H](CCC(=O)O)NC(=O)[C@H]([C@@H](C)O)NC(=O)[C@@H]2C[C@@H](c3ccccc3)CN2C(=O)[C@@H]2CCCN2C1=O` [3BP-3353, Hex-[Cys(3MeBn)-Pro-Eay-Thr-Glu-Phe-Cys]-NH2] (Hexanoyl-CP[Pro(trans-4-Ph)]TEFC-NH2; linker 1-7 via mXylylene), the negative-log IC50 (pIC50) is less than 6.00 in assay [1] and 6.10 to 7.00 at Human recombinant FAP.
The corresponding values for `CCCCCC(=O)N[C@H]1CSCc2cccc(c2)CSC[C@@H](C(N)=O)NC(=O)[C@H](Cc2ccccc2)NC(=O)[C@H](CCC(=O)O)NC(=O)[C@H](CCCNC(=O)c2cnccn2)NC(=O)[C@@H]2CCCN2C(=O)[C@@H]2CCCN2C1=O` [3BP-3355, Hex-[Cys(3MeBn)-Pro-Pro-Opc-Glu-Phe-Cys]-NH2] (Hexanoyl-CPP[Orn](Pyrazinecarbonyl)EFC-NH2; linker 1-7 via mXylylene) are less than 6.00 and 6.10 to 7.00.
The corresponding values for `CCCCCC(=O)N[C@H]1CSCc2cccc(c2)CSC[C@@H](C(N)=O)NC(=O)[C@H](Cc2ccccc2)NC(=O)[C@H](CCS(C)(=O)=O)NC(=O)[C@H]([C@@H](C)O)NC(=O)[C@@H]2CCCN2C(=O)[C@@H]2CCCN2C1=O` [3BP-3356, Hex-[Cys(3MeBn)-Pro-Pro-Thr-Moo-Phe-Cys]-NH2] (Hexanoyl-CPPT[Met(O2)]FC-NH2; linker 1-7 via mXylylene) are less than 6.00 and less than 6.00.
The corresponding values for `CCCCCC(=O)N[C@H]1CSCc2cccc(c2)CSC[C@@H](C(N)=O)NC(=O)[C@H](Cc2ccccc2)NC(=O)[C@H](CCC(=O)O)N(C)C(=O)[C@H]([C@@H](C)O)NC(=O)[C@@H]2CCCN2C(=O)[C@@H]2CCCN2C1=O` [3BP-3357, Hex-[Cys(3MeBn)-Pro-Pro-Thr-Nme-Phe-Cys]-NH2] (Hexanoyl-CPPT[NMeE]FC-NH2; linker 1-7 via mXylylene) are less than 6.00 and less than 6.00.
Regarding `CCCCCC(=O)N[C@H]1CSCc2cccc(c2)CSC[C@@H](C(N)=O)NC(=O)[C@H](Cc2ccccc2)N(C)C(=O)[C@H](CCC(=O)O)NC(=O)[C@H]([C@@H](C)O)NC(=O)[C@@H]2CCCN2C(=O)[C@@H]2CCCN2C1=O` [3BP-3358, Hex-[Cys(3MeBn)-Pro-Pro-Thr-Glu-Nmf-Cys]-NH2] (Hexanoyl-CPPTE[NMeF]C-NH2; linker 1-7 via mXylylene), the pIC50 is less than 6.00 in assay [1] and 6.10 to 7.00 at Human recombinant FAP.
`CCCCCC(=O)N[C@H]1CSCc2cccc(c2)CSC[C@@H](C(N)=O)NC(=O)[C@@H]2Cc3ccccc3CN2C(=O)[C@H](CCC(=O)O)NC(=O)[C@H]([C@@H](C)O)NC(=O)[C@@H]2CCCN2C(=O)[C@@H]2CCCN2C1=O` [3BP-3359, Hex-[Cys(3MeBn)-Pro-Pro-Thr-Glu-Tic-Cys]-NH2] (Hexanoyl-CPPTE[Tic]C-NH2; linker 1-7 via mXylylene): the pIC50 was less than 6.00 in assay [1] and 6.10 to 7.00 at Human recombinant FAP.
The corresponding values for `CCCCCC(=O)N[C@H]1CSCc2cccc(c2)CSC[C@@H](C(N)=O)NC(=O)CN(Cc2ccccc2)C(=O)[C@H](CCC(=O)O)NC(=O)[C@H]([C@@H](C)O)NC(=O)[C@@H]2CCCN2C(=O)[C@@H]2CCCN2C1=O` [3BP-3360, Hex-[Cys(3MeBn)-Pro-Pro-Thr-Glu-Nphe-Cys]-NH2] (Hexanoyl-CPPTE[Nphe]C-NH2; linker 1-7 via mXylylene) are less than 6.00 and less than 6.00.
Taken in the same sequence, the figures for `CCCCCC(=O)N[C@H]1CSCc2cccc(c2)CSC[C@@H](C(N)=O)NC(=O)[C@H](Cc2cccc3ccccc23)NC(=O)[C@H](CCC(=O)O)NC(=O)[C@H]([C@@H](C)O)NC(=O)[C@@H]2CCCN2C(=O)[C@@H]2CCCN2C1=O` [3BP-3361, Hex-[Cys(3MeBn)-Pro-Pro-Thr-Glu-1Ni-Cys]-NH2] (Hexanoyl-CPPTE[1Nal]C-NH2; linker 1-7 via mXylylene) were 7.10 to 8.00 and 7.10 to 8.00.
The corresponding values for `CCCCCC(=O)N[C@H]1CSCc2cccc(c2)CSC[C@@H](C(N)=O)NC(=O)[C@H](Cc2ccc3ccccc3c2)NC(=O)[C@H](CCC(=O)O)NC(=O)[C@H]([C@@H](C)O)NC(=O)[C@@H]2CCCN2C(=O)[C@@H]2CCCN2C1=O` [3BP-3362, Hex-[Cys(3MeBn)-Pro-Pro-Thr-Glu-2Ni-Cys]-NH2] (Hexanoyl-CPPTE[2Nal]C-NH2; linker 1-7 via mXylylene) are 6.10 to 7.00 and 6.10 to 7.00.
Take `CCCCCC(=O)N[C@H]1CSCc2cccc(c2)CSC[C@@H](C(N)=O)NC(=O)[C@H](Cc2ccc(-c3ccccc3)cc2)NC(=O)[C@H](CCC(=O)O)NC(=O)[C@H]([C@@H](C)O)NC(=O)[C@@H]2CCCN2C(=O)[C@@H]2CCCN2C1=O` [3BP-3363, Hex-[Cys(3MeBn)-Pro-Pro-Thr-Glu-Bip-Cys]-NH2] (Hexanoyl-CPPTE[Bip]C-NH2; linker 1-7 via mXylylene): the pIC50 (in assay [1]; on Human recombinant FAP) was less than 6.00 in each case.
